# Columns and labels:
# Assay type in all cases: physicochemical
# [1] = Stability evaluation on exposure to heating, light or humidifying stimulus (HPLC)
# Method: The Form-I crystal of the p-TsOH salt of the compound A and the free form crystal of the compound A prepared according to the method described in PATENT DOCUMENT 1 were exposed to heating stimulus (allowed to stand at 60°C for 24 hours), light stimulus (light source: D65 lamp, total intensity: 1.2 million lx·hr), or humidifying stimulus (allowed to stand at 30°C and a relative humidity of 90% for 24 hours), and the stability thereof was evaluated based on the percentage (%) of the area of the peak of the free form of the compound A or the Form-I crystal of the p-TsOH salt of the compound A in the observed peaks in HPLC with and without exposure to the stimuli.
# [2] = Stability test of Form-I crystal when mixed with excipient (40°C, 75% relative humidity, open system; HPLC and visual inspection); settings: for observation of the color of the crystal: crystal only and all excipient mixtures, visual inspection
# Method: The Form-I crystal of the p-TsOH salt of the compound A was mixed with each of various excipients at a mass ratio of 1:1 using a mortar, was allowed to stand in a thermo-hygrostat at a temperature of 40°C and a relative humidity of 75% in an open system for 2 weeks or 1 month, and then evaluated for the presence/absence of decomposition using HPLC and checked for color change by visual inspection. The stability of only the Form-I crystal of the p-TsOH salt of the compound A was also evaluated as a reference. The conditions for HPLC are as follows. • Instrument: SHIMADZU LC-2010 CHT • Column: COSMOSIL 3C18-MSII 4.6×100 mm • Column temperature: 40°C • Mobile phase: Liquid A; MeCN/H2O/MsOH = 600/400/1 Liquid B: MeCN/H2O/MsOH = 900/100/1 • Gradient: 0-8 min; A = 100% • 8-10 min; A to B • 10-20 min; B = 100% • 20-21 min; B to A • Flow rate: 0.5 mL/min • Wavelength: 230 nm
# The results of the percentage (%) of the area of the peak of the Form-I crystal of the p-TsOH salt of the compound A in the observed peaks in HPLC and observation of the color of the crystal are shown in Table 3. According to Table 3, no decomposition of the Form-I crystal of the p-TsOH salt of the compound A was observed under the conditions of mixing with any of the excipients, and no color change occurred. […]
# [3] = Relative stability of Form-I to Form-III crystals: pairs stirred in acetone (X-ray powder diffraction); settings: pairs at mass ratio 1:1 in acetone, 30°C, 42 hours
# Method: The Form-I crystal and the Form-II crystal of the p-TsOH salt of the compound A, the Form-I crystal and the Form-III crystal of the p-TsOH salt of the compound A, or the Form-II crystal and the Form-III crystal of the p-TsOH salt of the compound A were added to acetone at a mass ratio of 1:1, and the mixture was stirred at 30°C for 42 hours. Then, the crystal form of the p-TsOH salt of the compound A in the solution was examined by X-ray powder diffraction, and as a result, under all the three conditions, each of the crystals of the p-TsOH salt of the compound A in the solution transitioned to a Form-I crystal.
# [4] = Relative stability between crystals: six forms stirred together in DMF/toluene (X-ray powder diffraction); settings: Form-I, III, IV, V, VI, VII, 100 mg each, in DMF/toluene 1:9, stirred at 20°C or 55°C
# Method: The crystals of the p-TsOH salt of the compound A prepared in Examples 1 to 3 and Comparative Examples 1 to 3 were each weighed in 100 mg, a total of 600 mg was added to 30 mL of a mixed solvent of DMF and toluene having a volume ratio of 1:9, and the mixture was stirred at 20°C or 55°C. After 3, 4, 7, and 8 days from the start of stirring at 20°C, and after 3 and 4 days from the start of stirring at 55°C, the crystal form of the p-TsOH salt of the compound A in the mixed solution was measured by X-ray powder diffraction.
# [5] = Stability of Form-I crystal in various solvents (X-ray powder diffraction); settings: pulverized crystal in methanol, ethyl acetate or methyl ethyl ketone, 40°C, 115 hours
# Method: In order to facilitate the transition of the crystal form by a solvent, the Form-I crystal of the p-TsOH salt of the compound A was pulverized in a mortar. The obtained pulverized material was added to methanol, ethyl acetate, or methyl ethyl ketone, and the mixture was stirred at 40°C for 115 hours. After stirring, the crystal form of the p-TsOH salt of the compound A in the solution was examined by X-ray powder diffraction, and the results are shown in FIG. 28.
# [6] = Stability of crystal form on mechanical stimulus and water (X-ray powder diffraction); settings: pulverized, water-treated, stored at 30°C, relative humidity 90%, tableted (2,000 kgf × 30 min)
# Method: X-ray powder diffraction measurement was performed for a crystal (pulverized) obtained by pulverizing the Form-I crystal of the p-TsOH salt of the compound A in a mortar, a crystal (water-treated) obtained by kneading the Form-I crystal of the p-TsOH salt of the compound A after adding water, a sample of the Form-I crystal of the p-TsOH salt of the compound A stored under a humidifying stimulus condition (30°C, relative humidity of 90%), and a sample obtained by tableting the Form-I crystal of the p-TsOH salt of the compound A (2,000 kgf × 30 min). The results are shown in FIG. 24 together with the results of the Form-I crystal of the p-TsOH salt of the compound A not undergoing any treatment (untreated).
# [7] = Differential thermal analysis and thermogravimetric analysis (TG/DTA); settings: heating rate 10.0°C/min, nitrogen
# Method: TG/DTA in Examples 1 to 11 was measured by TG-8120 (manufactured by Rigaku Corporation) (cell: alumina (open), gas: nitrogen, heating rate: 10.0°C/min, hold temperature: 300°C, hold time: 0 min) unless otherwise specified.
# The results of differential scanning calorimetry (DSC) of the Form-I crystal of the p-TsOH salt of the compound A are shown in FIG. 2. The results of thermophysical property measurement by differential thermal analysis (DTA) and thermogravimetric analysis (TGA) of the Form-I crystal of the p-TsOH salt of the compound A are shown in FIG. 3.
# [8] = Crystal form transition on standing at 40°C and 75% relative humidity (relative stability); settings: 1/2 acetonitrile solvate crystal at 40°C, relative humidity 75%, 7 days gave Form-IV crystal
# Method: About 10 mg of the 1/2 acetonitrile solvate crystal of the p-TsOH salt of the compound A obtained in Example 3 was allowed to stand at 40°C and a relative humidity of 75% for 7 days, and as a result, a Form-IV crystal of the p-TsOH salt of the compound A was obtained.
# [9] = Thermal stability of Form-II crystal (X-ray powder diffraction while heating and cooling); settings: heated to 30°C, 150°C, 200°C, then cooled to 150°C and 30°C
# Method: Therefore, for the Form-II crystal of the p-TsOH salt of the compound A, the crystal form was examined by X-ray powder diffraction while increasing the temperature to 30°C, 150°C, and 200°C, and then the crystal form was further examined by X-ray powder diffraction while cooling to 150°C and 30°C.
# [10] = Crystal form transition on heating (relative stability of crystal forms)
# Method: The Form-V crystal of the p-TsOH salt of the compound A obtained in Comparative Example 1 was heated at 205°C for 10 minutes, and as a result, a Form-III crystal of the p-TsOH salt of the compound A was obtained.
# The Form-VI crystal of the p-TsOH salt of the compound A obtained in Comparative Example 2 was heated at 190°C for 10 minutes, and as a result, a Form-III crystal of the p-TsOH salt of the compound A was obtained.
# [11] = Stability test of Form-III crystal at 40°C and 75% relative humidity; settings: relative humidity 75%
# Method: About 10 mg of the Form-III crystal of the p-TsOH salt of the compound A obtained in Example 2 was allowed to stand at 40°C and a relative humidity of 75% for 7 days or longer, and as a result, the Form-III crystal of the p-TsOH salt of the compound A was able to exist stably for 7 days or longer.
# [12] = Heating stimulus: 60°C for 24 hours
# [13] = Humidifying stimulus: 30°C, relative humidity 90%, 24 hours
# [14] = Light stimulus: D65 lamp, total intensity 1.2 million lx·hr
compound,measurement,setting,value
"COCc1nc2c(C(=O)Nc3cccc(Cl)c3C)cc(NC(=O)c3ccccc3C(F)(F)F)cc2[nH]1 [Free form of compound A, N-(3-chloro-2-methylphenyl)-2-(methoxymethyl)-6-({[2-(trifluoromethyl)phenyl]carbonyl}amino)-1H-benzimidazole-4-carboxamide]",percentage (%) of the area of the peak in the observed peaks in HPLC,[1]; [12],99.76%
same,percentage (%) of the area of the peak in the observed peaks in HPLC,[1]; [13],99.76%
same,percentage (%) of the area of the peak in the observed peaks in HPLC,[1]; [14],99.74%
same,percentage (%) of the area of the peak in the observed peaks in HPLC,[1]; No stimulus,99.78%
COCc1nc2c(C(=O)Nc3cccc(Cl)c3C)cc(NC(=O)c3ccccc3C(F)(F)F)cc2[nH]1.Cc1ccc(S(=O)(=O)O)cc1 [N-(3-chloro-2-methylphenyl)-2-(methoxymethyl)-6-({[2-(trifluoromethyl)phenyl]carbonyl}amino)-1H-benzimidazole-4-carboxamide 4-methylbenzenesulfonate],percentage (%) of the area of the peak of the Form-I crystal of the p-TsOH salt of the compound A in the observed peaks in HPLC,"[2]; Crystal only, 1 month at 40°C, relative humidity 75%, open system",99.68%
same,percentage (%) of the area of the peak of the Form-I crystal of the p-TsOH salt of the compound A in the observed peaks in HPLC,"[2]; Crystal only, 2 weeks at 40°C, relative humidity 75%, open system",99.70%
same,percentage (%) of the area of the peak of the Form-I crystal of the p-TsOH salt of the compound A in the observed peaks in HPLC,"[2]; Crystal only, immediately after mixing",99.71%
same,observation of the color of the crystal,"[2]; 1 month at 40°C, relative humidity 75%",No color change under any conditions
same,observation of the color of the crystal,"[2]; 2 weeks at 40°C, relative humidity 75%",No color change under any conditions
same,percentage (%) of the area of the peak of the Form-I crystal of the p-TsOH salt of the compound A in the observed peaks in HPLC,"[2]; mixed 1:1 with Corn starch, 1 month at 40°C, relative humidity 75%",99.66%
same,percentage (%) of the area of the peak of the Form-I crystal of the p-TsOH salt of the compound A in the observed peaks in HPLC,"[2]; mixed 1:1 with Corn starch, 2 weeks at 40°C, relative humidity 75%",99.66%
same,percentage (%) of the area of the peak of the Form-I crystal of the p-TsOH salt of the compound A in the observed peaks in HPLC,"[2]; mixed 1:1 with Corn starch, immediately after mixing",99.71%
same,percentage (%) of the area of the peak of the Form-I crystal of the p-TsOH salt of the compound A in the observed peaks in HPLC,"[2]; mixed 1:1 with Crystalline cellulose, 1 month at 40°C, relative humidity 75%",99.69%
same,percentage (%) of the area of the peak of the Form-I crystal of the p-TsOH salt of the compound A in the observed peaks in HPLC,"[2]; mixed 1:1 with Crystalline cellulose, 2 weeks at 40°C, relative humidity 75%",99.65%
same,percentage (%) of the area of the peak of the Form-I crystal of the p-TsOH salt of the compound A in the observed peaks in HPLC,"[2]; mixed 1:1 with Crystalline cellulose, immediately after mixing",99.73%
same,percentage (%) of the area of the peak of the Form-I crystal of the p-TsOH salt of the compound A in the observed peaks in HPLC,"[2]; mixed 1:1 with D-Mannitol, 1 month at 40°C, relative humidity 75%",99.71%
same,percentage (%) of the area of the peak of the Form-I crystal of the p-TsOH salt of the compound A in the observed peaks in HPLC,"[2]; mixed 1:1 with D-Mannitol, 2 weeks at 40°C, relative humidity 75%",99.70%
same,percentage (%) of the area of the peak of the Form-I crystal of the p-TsOH salt of the compound A in the observed peaks in HPLC,"[2]; mixed 1:1 with D-Mannitol, immediately after mixing",99.63%
same,percentage (%) of the area of the peak of the Form-I crystal of the p-TsOH salt of the compound A in the observed peaks in HPLC,"[2]; mixed 1:1 with Lactose, 1 month at 40°C, relative humidity 75%",99.58%
same,percentage (%) of the area of the peak of the Form-I crystal of the p-TsOH salt of the compound A in the observed peaks in HPLC,"[2]; mixed 1:1 with Lactose, 2 weeks at 40°C, relative humidity 75%",99.74%
same,percentage (%) of the area of the peak of the Form-I crystal of the p-TsOH salt of the compound A in the observed peaks in HPLC,"[2]; mixed 1:1 with Lactose, immediately after mixing",99.64%
same,"most stable form among Form-I, Form-II and Form-III crystals",[3],the most stable form
same,most stable form among the crystals,[4],the most stable form
same,change in crystal form,[5],no change in crystal form was observed under any of the conditions
same,change in crystal form,[6],no change in crystal form was observed under any of the conditions
same,thermal stability in DTA/TGA,[7],stable without any weight change or endothermic or exothermic heat until decomposition at 200 °C or higher
same,percentage (%) of the area of the peak in the observed peaks in HPLC,[1]; [12],99.69%
same,percentage (%) of the area of the peak in the observed peaks in HPLC,[1]; [13],99.68%
same,percentage (%) of the area of the peak in the observed peaks in HPLC,[1]; [14],99.72%
same,percentage (%) of the area of the peak in the observed peaks in HPLC,[1]; No stimulus,99.70%
same,change in the color of the crystal,"[1]; after exposure to heating, light or humidifying stimulus",no change in the color of the crystal was observed
same,relative stability of crystal forms,[8],higher stability than the 1/2 acetonitrile solvate crystal of the p-TsOH salt of the compound A obtained in Example 3
same,stability against heat,[9],rather stable against heat
same,relative stability of crystal forms,[10]; Form-V crystal heated at 205°C for 10 minutes gave Form-III crystal,higher stability than the Form-V crystal
same,relative stability of crystal forms,[10]; Form-VI crystal heated at 190°C for 10 minutes gave Form-III crystal,higher stability than the Form-VI crystal
same,time for which the crystal was able to exist stably,[11],≥ 7 days

# From patent EP4810486A1, “CRYSTAL OF HETEROCYCLIC DERIVATIVE” (Nippon Shinyaku Co., Ltd., priority 2023, dated 2025)
